Read-outs that look alike come from different tables or passages of the source.
Assays:
Acute toxicity in mice = type: in vivo; details: mouse, in vivo; oral, 7 days, 5 animals, Litchfield-Wilcoxon's method
Description: (§1) Some pyrrolizidine compounds according to the invention were tested to evaluate their acute toxicity in mice.
(§2) ICR mice of male sex were used, each having the body weight of 24.8 to 30.0 g. The compounds were orally administered and general condition, behavior and mortality were observed daily throughout the experimental period of time (7 days). At end of the period, the surviving animals were sacrificed. Dead animals were sacrificed at the time when they were recognized to be dead. LD50 value was calculated in accordance with Litchfield-Wilcoxon's method.

pupil diameter = test: Influence on pupil diameter of mice (mydriatic effect); type: in vivo, ICR mice, male; details: oral, 30 minutes
Description: (Influence on pupil diameter of mice)
Some pyrrolizidine compounds according to the invention were tested to evaluate their influence on the pupil diameter of mice, in comparison with Pirenzepine and Atropine as controls.
The animals were deprived of food for 18 hours prior to the test. After 30 minutes from oral administration of the compounds, the pupil width was measured by a micrometer. Results are shown in following Table 3 in terms of ratio of pupil diameter and mydriatic effect.

[1] = system: aspirin induced gastric ulcer; test: Aspirin ulcer in rats (pylorus ligated); type: in vivo, Sprague-Dawley rats, male; details: for Inhibition (%): an hour before pylorus ligation and aspirin (100 mg/kg); for ED50: Rattus norvegicus
Description: Some pyrrolizidine compounds according to the invention were tested to evaluate their anti-ulcer activity on Aspirin ulcer, in comparison with Pirenzepine and Cimetidine as controls, in accordance with the procedure proposed by Okabe et al. ["Japan. J. Pharmacol." Vol. 24, page 363 (1974)].
Sprague-Dawley rats of male sex were used, each having the body weight of 146 to 210 g. The animals were deprived of food for 24 hours prior to the test. After an hour from oral administration of the compounds, the pylorus was ligated under anesthesia by ethyl ether and aspirin (100 mg/kg) suspended with 5% gum arabic was orally administered. After 7 hours from the administration, the stomach was isolated and inflated with 10 ml of 1% formalin. The ulcer index was determined as the sum of the length (mm) of each erosion per rat.
Results are shown in following Table 2 in terms of percent inhibition of anti-ulcer activity with respect to concentrations of 10 to 100 mg/kg.

[2] = system: stress induced gastric ulcer; test: Stress ulcer in rats (restraint and water immersion); type: in vivo, Wistar rats, male; details: for Inhibition (%): an hour before the restraint; for ED50: Rattus norvegicus
Description: Some pyrrolizidine compounds according to the invention were tested to evaluate their anti-ulcer activity in comparison with Pirenzepine and Cimetidine as controls, in accordance with the procedure proposed by Takagi et al.["Japan. J. Pharmacol." Vol. 18, page 9 (1968)].
Wistar rats of male sex were used, each having the body weight of 138 to 207 g. The animals were deprived of food for 24 hours prior to the test. They were immobilized in a restraint cage and immersed for 7 hours to the height of the xiphoid in a water bath kept at 23±1° C. After inflation with 10 ml of 1% formalin, the isolated stomach was opened along the greater curvature. The ulcer index was determined as the sum of the length (mm) of each erosion per rat. The compounds were administered orally an hour before the restraint.

ICR mice = test: Acute toxicity in mice; type: in vivo; details: oral, 7 days, of 5 animals; numeral in parenthesis
Description: as §1, §2

[3] = in words, related arts; cited from earlier work
[4] = 30 mg/kg, Atropine (1 mg/kg) = 1.00
[5] = oral, concentration of inhibitor which gives 50% inhibition, read-out: ED50

SMILES | LD50 at 168 h (Acute toxicity in mice) [mg/kg] | Rate of pupil dia. (pre. = 1) (pupil diameter; 30 mg/kg) | Ratio of mydriasis (pupil diameter; [4]) | Inhibition (%) ([1]; 10 mg/kg, oral) | Inhibition (%) ([1]; 100 mg/kg, oral) | ED50 [1, 5] [mg/kg] | Inhibition (%) ([2]; 10 mg/kg, oral) | Inhibition (%) ([2]; 100 mg/kg, oral) | ED50 [2, 5] [mg/kg] | number of dead animals (ICR mice) | ED50 ([1]; po) [mg/kg] | side effects [3] | ED50 ([2]; po) [mg/kg] | Rate of pupil dia. (pre. = 1) (pupil diameter; 1 mg/kg) | Ratio of mydriasis (pupil diameter; 1 mg/kg)
c1ccc2c(c1)Sc1ccccc1N2CC12CCCN1CCC2 [Example 1, 10-(7a-Pyrrolizidinylmethyl)phenothiazine] | > 1000 | 2.7 | 0.57 | 58.3 | 63.5 | < 10 | 55.4 | 92.5 | < 10 | – | – | – | – | – | –
c1ccc2c(c1)Sc1ccccc1N2CCC12CCCN1CCC2 [Example 2, 10-[2-(7a-Pyrrolizidinyl)ethyl)phenothiazine] | < 1000 | 4.6 | 0.98 | 53.3 | 73.2 | < 10 | 38.6 | 87.0 | 16.4 | 4 | – | – | – | – | –
O=C1Nc2cccnc2N(C(=O)C23CCCN2CCC3)c2ccccc21 [Example 5, 5,11-Dihydro-11-(pyrrolizidine-7a-carbonyl)-6H-pyrido(2,3-b)(1,4)-benzodiazepin-6-one] | > 1000 | 0.9 | 0.19 | 23.6 | 82.2 | 27.9 | 31.7 | 80.2 | 23.6 | 1 | – | – | – | – | –
CN(C)S(=O)(=O)c1ccc2c(c1)N(CC13CCCN1CCC3)c1ccccc1S2 [Example 3, 2-(N,N-Dimethylsulfamoyl)-10-(7a-pyrrolizidinylmethyl)phenothiazine] | > 1000 | 1.1 | 0.23 | 19.7 | 36.5 | > 100 | 49.4 | 65.6 | 11.8 | – | – | – | – | – | –
CN/C(=N/CCSCc1nc[nH]c1C)NC#N [Cimetidine, reference compound] | – | – | – | 12.2 | 69.6 | – | 16.9 | 81.5 | – | – | 50.4 | side effects of forming a perforation in ulcer and strengthening a delayed hypersensitive reaction | 33.8 | – | –
CN1[C@@H]2CC[C@H]1C[C@@H](OC(=O)C(CO)c1ccccc1)C2 (stereo partly drawn) [Atropine, reference compound] | – | – | – | – | – | – | – | – | – | – | – | – | – | 4.7 | 1.00
C[Si](C)(C)c1cccc2c1N(CC13CCCN1CCC3)c1ccccc1S2 [Example 4, 10-(7a-Pyrrolizidinylmethyl)-1-trimethylsilylphenothiazine] | > 1000 | – | – | 17.7 | 65.6 | – | – | – | – | – | 60.4 | – | – | – | –
CN1CCN(CC(=O)N2c3ccccc3C(=O)Nc3cccnc32)CC1 [Pirenzepine, reference compound] | – | 3.4 | 0.72 | 22.1 | 90.5 | 23.7 | 7.2 | 98.8 | 26.3 | – | – | side reactions due to supression of muscarinic receptor, although those are somewhat weak | – | – | –

— patent publication US4734411A, “Pyrrolizidine compounds, salts thereof, process for the preparation of same and pharmaceutical agents comprising same” (Sanwa Kagaku Kenkyusho Co., Ltd., priority 1985, dated 1988)
